This is an account of results in US10829478B2, “5-[3-[piperazin-1-yl]-3-oxo-propyl]-imidazolidine-2,4-dione derivatives as ADAMTS 4 and 5 inhibitors for treating e.g. osteoarthritis” (Galapagos NV, priority 2016, dated 2020).

One test addresses human ADAMTS4 (Homo sapiens (Human), UniProt O75173). Description: hADAMTS-4 TBIS-1 cleavage assay, Protocol 2. It counts as biochemical.
The next test addresses rnADAMTS-5 (1-564-6H) (Rattus norvegicus (Rat), UniProt Q6TY19). Description: Rat ADAMTS-5 TBIS-1 cleavage assay. The test is classed as biochemical. Particulars: 120 min at 37° C.; read-out: Rat ADAMTS-5 potency IC50.
For another test, the target named is human ADAMTS-5 (Homo sapiens (Human), UniProt Q9UNA0). Briefly: hADAMTS-5 TBIS-1 cleavage assay, Protocol 3. The test is classed as biochemical. The following applies: 90 min at 37° C., read-out: hADAMTS-5 potency IC50.
The target of the next test is human ADAMTS6 (Homo sapiens (Human), UniProt Q9UKP5). Description: hADAMTS-6 fluorescent based protease assay (520 MMP FRET substrate XII). It counts as biochemical. The following applies: 37° C. for 2 h; read-out: hADAMTS-6 potency IC50. The gist of the method: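 ADAMTS6 (0.73 nM final) in 25 mM Tris pH 8.0, 0.05% CHAPS, 2.5 mM CaCl2 with compound dilution series (top 20 μM, 1/5 steps). Reaction started with 520 MMP FRET Substrate XII, incubated 2 h at 37 °C. Substrate cleavage read by fluorescence ex485/em530; IC50 determined.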

Test [1] addresses T1, human MMP13 (Homo sapiens (Human), UniProt P45452). Description: hMMP13 assay, Protocol 1 (390 MMP FRET Substrate I, Chemicon enzyme). The test is classed as biochemical. The following applies: Protocol 1, human MMP13 (Chemicon), read-out: hMMP-13 potency IC50. Here is the method: (§1) Human MMP13 is preactivated by incubated the enzyme in the same buffer complemented with 1 mM freshly prepared p-Aminophenylmercuric acetate (AMPA) for 1 h at 37° C.

The target of a further test is human TACE (Homo sapiens (Human), UniProt P78536). Description: biochemical.
For test [2], the target named is T1, human MMP13. Briefly: hMMP13 assay, Protocol 2 (390 MMP FRET Substrate I, Enzo enzyme). It counts as biochemical. The following applies: Protocol 2, human MMP13 (Enzo Life Sciences), read-out: hMMP-13 potency IC50. Here is the method:
as §1

For another test, the target named is human MMP14 (Homo sapiens (Human), UniProt P50281). Briefly: hMMP14 assay (390 MMP FRET Substrate I). The test is classed as biochemical. The following applies: human MMP14 (Biomol), read-out: hMMP-14 potency IC50.
[3] abbreviates: Protocol 2, 180 min at 37° C., read-out: ADAMTS4 potency IC50.

Like-named read-outs stand apart in the source and are kept apart here.

Chain of human ADAMTS4 (O75173 213-837): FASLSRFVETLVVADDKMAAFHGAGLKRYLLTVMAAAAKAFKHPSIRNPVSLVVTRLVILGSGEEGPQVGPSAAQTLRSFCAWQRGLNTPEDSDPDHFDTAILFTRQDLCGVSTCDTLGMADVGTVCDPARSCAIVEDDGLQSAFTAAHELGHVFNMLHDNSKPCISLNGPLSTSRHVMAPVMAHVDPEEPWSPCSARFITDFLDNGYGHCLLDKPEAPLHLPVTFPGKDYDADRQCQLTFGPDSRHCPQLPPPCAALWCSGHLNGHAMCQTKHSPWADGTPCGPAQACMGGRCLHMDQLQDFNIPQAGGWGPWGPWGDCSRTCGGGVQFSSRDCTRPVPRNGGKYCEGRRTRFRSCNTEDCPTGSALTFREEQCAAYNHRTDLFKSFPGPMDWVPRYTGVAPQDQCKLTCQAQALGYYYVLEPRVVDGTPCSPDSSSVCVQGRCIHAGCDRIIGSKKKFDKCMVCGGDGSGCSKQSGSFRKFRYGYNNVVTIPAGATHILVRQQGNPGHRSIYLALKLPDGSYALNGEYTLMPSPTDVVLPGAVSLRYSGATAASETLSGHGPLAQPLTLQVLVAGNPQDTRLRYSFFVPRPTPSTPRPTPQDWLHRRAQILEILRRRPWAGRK
Chain of human ADAMTS-5 (Q9UNA0 262-930): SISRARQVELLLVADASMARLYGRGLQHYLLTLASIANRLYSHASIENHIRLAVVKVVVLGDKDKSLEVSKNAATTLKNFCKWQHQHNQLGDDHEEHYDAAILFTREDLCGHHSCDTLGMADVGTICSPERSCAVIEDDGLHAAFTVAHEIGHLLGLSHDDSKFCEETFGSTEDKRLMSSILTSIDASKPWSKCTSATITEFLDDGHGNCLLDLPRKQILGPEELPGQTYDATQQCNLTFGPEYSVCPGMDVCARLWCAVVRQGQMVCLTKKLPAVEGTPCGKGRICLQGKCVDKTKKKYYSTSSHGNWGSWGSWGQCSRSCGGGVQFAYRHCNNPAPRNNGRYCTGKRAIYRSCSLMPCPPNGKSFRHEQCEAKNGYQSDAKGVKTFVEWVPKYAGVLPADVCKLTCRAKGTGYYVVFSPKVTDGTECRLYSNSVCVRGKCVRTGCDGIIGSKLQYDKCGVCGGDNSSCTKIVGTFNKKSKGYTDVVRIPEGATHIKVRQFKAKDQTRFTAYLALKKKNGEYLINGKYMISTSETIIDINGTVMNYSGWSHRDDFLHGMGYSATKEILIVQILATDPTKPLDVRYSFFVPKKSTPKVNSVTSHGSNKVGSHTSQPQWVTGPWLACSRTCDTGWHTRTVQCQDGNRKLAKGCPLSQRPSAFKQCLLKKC
Chain of human TACE (P78536 215-671): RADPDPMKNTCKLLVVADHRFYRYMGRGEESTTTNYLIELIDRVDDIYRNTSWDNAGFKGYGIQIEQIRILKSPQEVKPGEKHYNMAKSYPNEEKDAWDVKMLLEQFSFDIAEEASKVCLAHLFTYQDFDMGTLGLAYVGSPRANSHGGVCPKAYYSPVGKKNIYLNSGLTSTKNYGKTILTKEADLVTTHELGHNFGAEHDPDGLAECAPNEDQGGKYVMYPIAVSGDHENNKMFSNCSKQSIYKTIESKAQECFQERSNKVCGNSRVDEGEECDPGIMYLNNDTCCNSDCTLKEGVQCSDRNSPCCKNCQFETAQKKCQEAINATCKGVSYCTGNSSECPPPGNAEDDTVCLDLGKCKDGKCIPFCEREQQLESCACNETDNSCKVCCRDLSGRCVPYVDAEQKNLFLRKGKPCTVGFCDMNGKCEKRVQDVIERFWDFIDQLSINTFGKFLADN
Chain of human ADAMTS6 (Q9UKP5 other isoform, or with tags, fused parts or gaps): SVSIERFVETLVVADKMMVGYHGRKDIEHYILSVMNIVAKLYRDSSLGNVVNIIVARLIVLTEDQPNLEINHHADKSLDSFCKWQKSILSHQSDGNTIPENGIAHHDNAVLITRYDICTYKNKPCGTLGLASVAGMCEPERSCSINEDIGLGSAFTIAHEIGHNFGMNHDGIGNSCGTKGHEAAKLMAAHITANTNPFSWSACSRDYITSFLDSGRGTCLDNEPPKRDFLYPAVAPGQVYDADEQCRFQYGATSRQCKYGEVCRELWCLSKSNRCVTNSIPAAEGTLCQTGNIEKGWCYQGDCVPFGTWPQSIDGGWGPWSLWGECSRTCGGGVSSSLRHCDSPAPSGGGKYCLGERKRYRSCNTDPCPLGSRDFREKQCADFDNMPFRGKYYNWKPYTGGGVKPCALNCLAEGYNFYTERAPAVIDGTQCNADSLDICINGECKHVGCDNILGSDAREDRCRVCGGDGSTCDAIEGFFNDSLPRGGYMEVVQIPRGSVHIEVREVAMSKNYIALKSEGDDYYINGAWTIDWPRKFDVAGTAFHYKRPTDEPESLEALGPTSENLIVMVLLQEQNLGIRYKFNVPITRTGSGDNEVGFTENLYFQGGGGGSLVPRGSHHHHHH
Chain of rnADAMTS-5 (1-564-6H) (Q6TY19 entry or part of it): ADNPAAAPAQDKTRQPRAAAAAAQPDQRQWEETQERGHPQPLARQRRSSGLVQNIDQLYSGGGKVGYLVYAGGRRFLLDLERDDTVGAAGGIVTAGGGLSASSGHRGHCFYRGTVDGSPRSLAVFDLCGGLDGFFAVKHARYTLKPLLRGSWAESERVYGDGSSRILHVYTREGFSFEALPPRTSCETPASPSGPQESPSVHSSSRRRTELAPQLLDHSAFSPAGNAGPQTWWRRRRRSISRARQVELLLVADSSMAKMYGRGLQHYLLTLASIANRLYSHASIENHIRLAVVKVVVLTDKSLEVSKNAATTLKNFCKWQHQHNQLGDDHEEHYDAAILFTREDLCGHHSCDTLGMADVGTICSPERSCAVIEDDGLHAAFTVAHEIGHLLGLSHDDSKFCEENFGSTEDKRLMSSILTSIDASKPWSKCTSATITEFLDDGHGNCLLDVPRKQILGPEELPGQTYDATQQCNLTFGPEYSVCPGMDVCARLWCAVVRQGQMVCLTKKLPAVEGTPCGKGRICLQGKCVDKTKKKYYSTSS
Protocol for human ADAMTS-5: The reaction is initiated by adding to the assay plate TBIS-1 (10 μL, 4.5 μM, Anaspec) in the same buffer.
Finally, the fluorescence is read on the Envision (Perkin Elmer) after an incubation of 90 min at 37° C. (Excitation 485 nm, emission 530).
Protocol for human MMP14: The basis for the assay is the cleavage of the substrate 390 MMP FRET Substrate I (Anaspec Cat #AS-27076) by human MMP14 (Biomol, Cat #SE-259).
The reaction is initiated by adding to the assay plate 390 MMP FRET Substrate I (10 μL, 2.5 μM) in the same buffer.
Finally, the fluorescence is read on the Envision (Perkin Elmer) after an incubation of 60 min at room temperature (Excitation 485 nm, Emission 530).
Protocol for human TACE: Finally, the fluorescence is read on the Envision (Perkin Elmer) after an incubation of 75 min at room temperature (Excitation 485 nm, Emission 530).

The term IC50 denotes the concentration that gives 50% inhibition. With `COc1cc(N2CCN(C(=O)[C@@H](C)C[C@@]3(C)NC(=O)NC3=O)CC2)cc(OC)c1Cl` (stereo in doubt) [Cpd 40, 5-[3-[4-(4-chloro-3,5-dimethoxy-phenyl)piperazin-1-yl]-2-methyl-3-oxo-propyl]-5-methyl-imidazolidine-2,4-dione], the half-inhibitory concentration (IC50) is 25 to 50 nM against human ADAMTS4; more than 100 nM on rnADAMTS-5 (1-564-6H); 50 to 100 nM on human ADAMTS-5; 0.001 to 25 nM on human ADAMTS6; more than 100 nM at human MMP13 [1]; more than 100 nM at human TACE.
Take `COc1cc(F)cc(N2CCN(C(=O)[C@H](C)C[C@@]3(C4CC4)NC(=O)NC3=O)CC2)c1` (stereo in doubt) [Cpd 130, 5-cyclopropyl-5-[3-[4-(3-fluoro-5-methoxy-phenyl)piperazin-1-yl]-2-methyl-3-oxo-propyl]imidazolidine-2,4-dione]: the IC50 on rnADAMTS-5 (1-564-6H), on human ADAMTS-5 and at human ADAMTS6 was more than 100 nM in each case.
Consider `COc1cc(F)cc(N2CCN(C(=O)[C@H](C)C[C@@]3(C)NC(=O)NC3=O)CC2)c1` (stereo in doubt) [Cpd 131, 5-[3-[4-(3-fluoro-5-methoxy-phenyl)piperazin-1-yl]-2-methyl-3-oxo-propyl]-5-methyl-imidazolidine-2,4-dione], for which the IC50 at rnADAMTS-5 (1-564-6H), at human ADAMTS-5 and on human ADAMTS6 was more than 100 nM throughout.
In the case of `COc1cc(N2CCN(C(=O)CCC3(C4CC4)NC(=O)NC3=O)C[C@@H]2C)cc(F)c1F` (stereo partly drawn) [Cpd 21, 5-cyclopropyl-5-[3-[(3S)-4-(3,4-difluoro-5-methoxy-phenyl)-3-methyl-piperazin-1-yl]-3-oxo-propyl]imidazolidine-2,4-dione], the IC50 at human ADAMTS4 is 50 to 100 nM; at rnADAMTS-5 (1-564-6H), 0.001 to 25 nM; on human ADAMTS-5, 0.001 to 25 nM; on human ADAMTS6 it was 0.001 to 25 nM; at human MMP13 [1] it was more than 100 nM; on human TACE it was more than 100 nM.
On to `COc1cc(F)cc(N2CCN(C(=O)CCC3(c4cccnc4)NC(=O)NC3=O)CC2)c1` (stereo not drawn) [Cpd 23, 5-[3-[4-(3-fluoro-5-methoxy-phenyl)piperazin-1-yl]-3-oxo-propyl]-5-(3-pyridyl)imidazolidine-2,4-dione], for which the IC50 is 50 to 100 nM at human ADAMTS4; 50 to 100 nM at rnADAMTS-5 (1-564-6H); 50 to 100 nM on human ADAMTS-5; 25 to 50 nM at human ADAMTS6; more than 100 nM on human MMP13 [1]; more than 100 nM against human TACE.
Turning to `COc1cc(OC)cc(N2CCN(C(=O)CCC3(C)NC(=O)NC3=O)C[C@@H]2C)c1` (stereo partly drawn) [Cpd 25, 5-[3-[(3 S)-4-(3,5-dimethoxyphenyl)-3-methyl-piperazin-1-yl]-3-oxo-propyl]-5-methyl-imidazolidine-2,4-dione], the half-maximal inhibitory concentration (IC50) on human ADAMTS4 (setting [3]) is more than 100 nM; at rnADAMTS-5 (1-564-6H), more than 100 nM; at human ADAMTS-5, more than 100 nM; at human ADAMTS6, 25 to 50 nM; at human MMP13 [1] it was more than 100 nM; at human TACE it was more than 100 nM.
As to `COc1cc(F)cc(N2CCN(C(=O)[C@@H](C)C[C@@]3(C4CC4)NC(=O)NC3=O)CC2)c1` [Cpd 26, (5 S)-5-cyclopropyl-5-[(2S)-3-[4-(3-fluoro-5-methoxy-phenyl)piperazin-1-yl]-2-methyl-3-oxo-propyl]imidazolidine-2,4-dione], the IC50 against human ADAMTS4 was 0.001 to 25 nM; on rnADAMTS-5 (1-564-6H), 0.001 to 25 nM; at human ADAMTS-5 it was 0.001 to 25 nM; on human ADAMTS6, 0.001 to 25 nM; on human MMP13 [1], more than 100 nM; against human TACE, more than 100 nM.
For the compound `COc1cc(F)cc(N2CCN(C(=O)[C@@H](C)C[C@@]3(C)NC(=O)NC3=O)CC2)c1` [Cpd 27, (5R)-5-[(2S)-3-[4-(3-fluoro-5-methoxy-phenyl)piperazin-1-yl]-2-methyl-3-oxo-propyl]-5-methyl-imidazolidine-2,4-dione], the IC50 at human ADAMTS4 was 25 to 50 nM; at rnADAMTS-5 (1-564-6H), 25 to 50 nM; at human ADAMTS-5 it was 25 to 50 nM; on human ADAMTS6, 0.001 to 25 nM; at human MMP13 [1] it was more than 100 nM; at human TACE, more than 100 nM.
Consider `COc1cc(N2CCN(C(=O)CCC3(c4cccnc4)NC(=O)NC3=O)CC2)cc(F)c1F` (stereo not drawn) [Cpd 28, 5-[3-[4-(3,4-difluoro-5-methoxy-phenyl)piperazin-1-yl]-3-oxo-propyl]-5-(3-pyridyl)imidazolidine-2,4-dione], for which the half-maximal inhibitory concentration (IC50) on human ADAMTS4 (setting [3]) was more than 100 nM; on rnADAMTS-5 (1-564-6H), 50 to 100 nM; on human ADAMTS-5 it was more than 100 nM; on human ADAMTS6 it was 25 to 50 nM; at human MMP13 [1] it was more than 100 nM; against human TACE, more than 100 nM.
As to `COc1cc(N2CCN(C(=O)[C@@H](C)C[C@@]3(C4CC4)NC(=O)NC3=O)C[C@@H]2C)cc(F)c1F` [Cpd 29, 5-cyclopropyl-5-[(2S)-3-[(3S)-4-(3,4-difluoro-5-methoxy-phenyl)-3-methyl-piperazin-1-yl]-2-methyl-3-oxo-propyl]imidazolidine-2,4-dione], the concentration for half-maximal inhibition (IC50) is 25 to 50 nM against human ADAMTS4; 25 to 50 nM on rnADAMTS-5 (1-564-6H); 25 to 50 nM on human ADAMTS-5; 0.001 to 25 nM at human ADAMTS6; more than 100 nM at human MMP13 [1]; more than 100 nM at human TACE.
Turning to `COc1cc(N2CCN(C(=O)CCC3(C)NC(=O)NC3=O)C[C@@H]2C)cc(OC)c1Cl` (stereo partly drawn) [Cpd 30, 5-[3-[(3 S)-4-(4-chloro-3,5-dimethoxy-phenyl)-3-methyl-piperazin-1-yl]-3-oxo-propyl]-5-methyl-imidazolidine-2,4-dione], the IC50 was more than 100 nM at human ADAMTS4 (setting [3]); more than 100 nM at rnADAMTS-5 (1-564-6H); more than 100 nM at human ADAMTS-5; 0.001 to 25 nM at human ADAMTS6; more than 100 nM at human MMP13 [1]; more than 100 nM against human TACE.
Turning to `COc1cc(N2CCN(C(=O)CCC3(C)NC(=O)NC3=O)CC2)cc(OC)c1Cl` (stereo not drawn) [Cpd 31, 5-[3-[4-(4-chloro-3,5-dimethoxy-phenyl)piperazin-1-yl]-3-oxo-propyl]-5-methyl-imidazolidine-2,4-dione], the IC50 at human ADAMTS4 (setting [3]) was more than 100 nM; at rnADAMTS-5 (1-564-6H) it was more than 100 nM; on human ADAMTS-5, more than 100 nM; on human ADAMTS6, 0.001 to 25 nM; at human MMP13 [1], more than 100 nM; against human TACE, more than 100 nM.
As for `COC[C@]1(C[C@H](C)C(=O)N2CCN(c3cc(F)c(Cl)c(OC)c3)CC2)NC(=O)NC1=O` [Cpd 123, (5 S)-5-[(2S)-3-[4-(4-chloro-3-fluoro-5-methoxy-phenyl)piperazin-1-yl]-2-methyl-3-oxo-propyl]-5-(methoxymethyl)imidazolidine-2,4-dione], the IC50 was 50 to 100 nM against human ADAMTS4; 0.001 to 25 nM on human ADAMTS-5; 0.001 to 25 nM on human ADAMTS6; more than 100 nM on human MMP13 [2]; more than 100 nM on human MMP14; more than 100 nM on human TACE.
Consider `COc1cc(N2CCN(C(=O)CC[C@]3(C)NC(=O)NC3=O)C[C@@H]2C)ccc1Cl` [Cpd 146, (5 S)-5-[3-[(3 S)-4-(4-chloro-3-methoxy-phenyl)-3-methyl-piperazin-1-yl]-3-oxo-propyl]-5-methyl-imidazolidine-2,4-dione], for which the half-maximal inhibitory concentration (IC50) at human ADAMTS4 (setting [3]), at human ADAMTS-5, at human ADAMTS6, on human MMP13 [2], on human MMP14 and against human TACE was more than 100 nM in each case.
Regarding `COc1cc(N2CCN(C(=O)CC[C@H]3NC(=O)NC3=O)CC2)cc(Cl)c1F` [Cpd 147, (5R)-5-[3-[4-(3-chloro-4-fluoro-5-methoxy-phenyl)piperazin-1-yl]-3-oxo-propyl]imidazolidine-2,4-dione], the IC50 on human ADAMTS4 (setting [3]) was more than 100 nM; at human ADAMTS-5, more than 100 nM; at human ADAMTS6 it was 0.001 to 25 nM; at human MMP13 [2] it was more than 100 nM; on human MMP14, more than 100 nM; against human TACE it was more than 100 nM.
Regarding `COc1cc(N2CCN(C(=O)CC[C@H]3NC(=O)NC3=O)C[C@@H]2C)cc(Cl)c1F` [Cpd 148, (5R)-5-[3-[(3 S)-4-(3-chloro-4-fluoro-5-methoxy-phenyl)-3-methyl-piperazin-1-yl]-3-oxo-propyl]imidazolidine-2,4-dione], the IC50 on human ADAMTS4 (setting [3]) was more than 100 nM; on human ADAMTS-5, 25 to 50 nM; on human ADAMTS6 it was 0.001 to 25 nM; on human MMP13 [2], more than 100 nM; on human MMP14, more than 100 nM; against human TACE it was more than 100 nM.
As for `CCOc1cc(N2CCN(C(=O)CC[C@H]3NC(=O)NC3=O)C[C@@H]2C)cc(OC)c1Cl` [Cpd 150, (5R)-5-[3-[(3 S)-4-(4-chloro-3-ethoxy-5-methoxy-phenyl)-3-methyl-piperazin-1-yl]-3-oxo-propyl]imidazolidine-2,4-dione], the IC50 on human ADAMTS4 (setting [3]) is more than 100 nM; on human ADAMTS-5, more than 100 nM; at human ADAMTS6, 0.001 to 25 nM; at human MMP13 [2] it was more than 100 nM; on human MMP14, more than 100 nM; on human TACE it was more than 100 nM.
